# Test results published in US8871767B2, “2-arylimidazo[1,2-B]pyridazine, 2-phenylimidazo[1,2-A]pyridine, and 2-phenylimidazo[1,2-A]pyrazine derivatives” (Hengrui (USA) Ltd., priority 2010, dated 2014).
# Read-outs that look alike come from different tables or passages of the source.
# Legend:
# [1] = system: Hedgehog pathway activation (GLi-luciferase reporter) in Shh Light II reporter cells; assay: Hedgehog pathway activation on Shh Light II reporter cells measured by luciferase activity; format: cell-based; conditions: Mus musculus, Shh Light II
# Summary of the method: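 Shh Light II reporter cells carrying a hedgehog-responsive GLi-luciferase reporter were stimulated either with 500 nM SAG, a direct Smoothened agonist, or with conditioned media containing human Sonic Hedgehog (hShh). Test compounds were evaluated for blocking this pathway activation, quantified by luciferase activity. Cell viability was monitored in parallel with the Celltiter-Blue® assay.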
# [2] = system: Hedgehog pathway activation on 10T1/2/Smo#3 cells (C3H10T1/2 cells transfected with human Smoothened receptor); assay: Hedgehog pathway activation on 10T1/2/Smo#3 cells measured by ALP activity; format: cell-based; conditions: Mus musculus, C3H 10T1/2, 10T1/2/Smo#3 cells
# Summary of the method: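 Inhibition of alkaline phosphatase induction, read fluorometrically from 4-methylumbelliferyl phosphate conversion, gave IC50 values; CellTiter-Blue tracked viability in parallel. Cells were the human Smo-transfected 10T1/2/Smo#3 pool, stimulated by 10-20% hShh conditioned medium or the Smo agonist SAG (500 nM).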
# [3] = SAG activation (500 nM SAG), read-out: Shh Light II luciferase activity (SAG activation)
# [4] = hShh activation, read-out: Shh (IC50, inhibition of Hedgehog pathway activation)
# [5] = hShh activation, read-out: Shh Light II luciferase activity (hShh activation)
# [6] = hShh activation, ALP activity, read-out: 10T1/2/Smo#3 ALP activity (hShh Activation)
# [7] = measured by ALP activity, read-out: ALP (IC50, inhibition of Hedgehog pathway activation)
Compound,"IC50 [1, 3] [nM]","IC50 [1, 4] [nM]","IC50 [1, 5] [nM]","IC50 [2, 6] [nM]","IC50 [2, 7] [nM]"
Cc1ccc(-c2cn3nc(-c4ccc(C(=O)Nc5ccccc5N)cc4)ccc3n2)cc1NC(=O)C(C)(C)C [compound 597],< 300,39,< 300,< 300,285
"CCOC(=O)CCCCOc1ccc(-c2ccc3nc(-c4ccc(C)c(NC(=O)C(C)(C)C)c4)cn3n2)c(C(F)(F)F)c1 [Example 427, ethyl 5-(4-(2-(4-methyl-3-pivalamidophenyl)imidazo[1,2-b]pyridazin-6-yl)-3-(trifluoromethyl)phenoxy)pentanoate]",,27,,,176
"COc1cc(CN(Cc2cc(OC)cc(OC)c2)c2cc(-c3cn4nc(OC)ccc4n3)ccc2C)cc(OC)c1 [Example 104, N,N-bis(3,5-dimethoxybenzyl)-5-(6-methoxyimidazo[1,2-b]pyridazin-2-yl)-2-methylaniline]",3000 to 30000,> 10000,3000 to 30000,3000 to 30000,> 10000
